Experimental data: patent US20150352164A1, “COMPOSITION COMPRISING THEANINE AND AN EXTRACT OF INULA RACEMOSA” (CONOPCO, INC., D/B/A UNILEVER, priority 2012, published 2015)

Tested on: 3T3L1 (mouse preadipocytes), differentiated to mature adipocytes; adiponectin secretion
Experiment: Adiponectin assay: adiponectin secretion from differentiated 3T3L1 adipocytes, ELISA of supernatants
Format: cell-based
Conditions: for % of adiponectin (control cells taken as hundred): 48 hrs
Procedure: Adiponectin Assay Protocol • 3T3L1 (mouse preadipocytes) were plated on a 96 well plate at a density of 3*10^3 cells per well; • After 5 days of post confluency (a condition where the cells form a uniform layer) the cells were differentiated (a process where premature adipocytes are transformed to mature adipocytes) in differentiation medium for 10 days; • On the 11th day the matured adipocytes were treated with non cytotoxic concentrations (concentrations stated below) of the inula racemosa extract and theanine; • The cells were incubated for 48 hrs and supernatants were collected and stored. They were analysed to detect level of Adiponectin by ELISA; • The efficacy of the test ingredient was evaluated with respect to the untreated control (media control); • If any of the tested combinations of inula racemosa extract and theanine on increased adiponectin level was larger in a statistically significant way than the additive effect or individual components, then the particular combination is considered to be synergistic. To investigate the efficacy of inula racemosa and theanine in increasing adiponectin secretion from 3T3L1, the cells were treated with varying concentrations of inula racemosa (as obtained set out herein in the Materials section) and theanine in cell culture medium. The % of adiponectin from control cells were taken as hundred, upon which the treatment values were calculated. […] A range of combination varying amounts of inula racemosa extract and theanine were investigated on its joint ability for adiponectin secretion. The combinations used were (weight ratio's theanine:inula racemosa extract): 100:1 ([…]), 100:10,000 (H). This was achieved via dissolution of the components in aqueous stock solutions.

Compound: CCNC(=O)CCC(N)C(=O)O (stereo not shown) [Theanine, 2-Amino-4-(ethylcarbamoyl)butyric acid]
- % of adiponectin (control cells taken as hundred) (0.00001% wt of inula r. extract or theanine in cell culture medium): 106.7 +/− 7.4%
- % of adiponectin (control cells taken as hundred) (0.00002% wt of inula r. extract or theanine in cell culture medium): 107.0 +/− 7.0%
- % of adiponectin (control cells taken as hundred) (0.00005% wt of inula r. extract or theanine in cell culture medium): 136.7 +/− 7.3%
- % of adiponectin (control cells taken as hundred) (0.0001% wt of inula r. extract or theanine in cell culture medium): 141.7 +/− 1.6%
- % of adiponectin (control cells taken as hundred) (0.0005% wt of inula r. extract or theanine in cell culture medium): 145.8 +/− 8.2%
- % of adiponectin (control cells taken as hundred) (0.001% wt of inula r. extract or theanine in cell culture medium): 156.0 +/− 8.5%
- adiponectin levels, in-vitro, separately (varying concentrations, 3T3L1 cells): increased adiponectin levels
